Laboratory results as given in ChEMBL document CHEMBL3108714, “Bisphenol A binds to Ras proteins and competes with guanine nucleotide exchange: implications for GTPase-selective antagonists” (J Med Chem, 2013).
Active and inactive are the calls of the source. The calls are words filed in the database; no cut-off is given here.

What was measured:
GTP-binding protein Rheb [1] = target: T1, GTP-binding protein Rheb (Homo sapiens, UniProt Q15382); test: Inhibition of RHEB in human HeLa cells assessed as decrease in phospho-S6 protein level at 100 uM after 4 hrs by Western blotting analysis; format: cell-based
T1 sequence (Q15382 whole entry): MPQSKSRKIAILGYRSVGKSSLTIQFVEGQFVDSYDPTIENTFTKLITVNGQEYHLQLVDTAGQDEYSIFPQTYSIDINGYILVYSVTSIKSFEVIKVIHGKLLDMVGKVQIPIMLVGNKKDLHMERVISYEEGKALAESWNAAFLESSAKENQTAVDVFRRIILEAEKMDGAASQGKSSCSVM

HeLa [2] = test: Induction of apoptosis in human HeLa cells assessed as increase in cellular degeneration at >100 uM after 24 hrs by DAPI-staining-based microscopic analysis; format: functional, cell-based
GTPase KRas = GTPase KRas (Homo sapiens, UniProt P01116); test: Binding affinity to human K-RAS by NMR analysis
GTP-binding protein Rheb [3] = target: T1, GTP-binding protein Rheb; test: Binding affinity to full-length Rheb (unknown origin) by NMR spectroscopic analysis
HeLa [4] = test: Induction of apoptosis in human HeLa cells assessed as increase in cellular degeneration at 25 to 250 uM after 4 hrs by MTT assay; format: functional, cell-based

SMILES | inhibition (GTP-binding protein Rheb [1]) | Activity (HeLa [2]) | Kd (GTPase KRas) | Kd (GTP-binding protein Rheb [3]) | Activity (HeLa [4]) | inhibition (GTPase KRas)
CC(C)(c1ccc(O)cc1)c1ccc(O)cc1 [BISPHENOL A] | inactive | Active | 600 µM | 1800 µM |  | 
Oc1ccc(-c2ccc(O)cc2)cc1 | Active |  |  | 1500 µM | Active | inactive
